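Cultured in 96-well plates, cells were exposed to test compound for 48 hours across five concentrations. TGI denotes the concentration required for complete inhibition of growth.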
Assays:
Assay in all cases: growth of human tumour cells (NCI), 48 h
BT-549 breast = system: BT-549 breast
NCI-H522 lung = system: NCI-H522 lung
NCI-H226 lung = system: NCI-H226 lung
NCI-H23 lung = system: NCI-H23 lung
HOP-62 NSCLC = system: HOP-62 NSCLC
M14 melanoma = system: M14 melanoma
OVCAR-5 ovarian = system: OVCAR-5 ovarian
SNB-19 CNS = system: SNB-19 CNS
SK-MEL-28 melanoma = system: SK-MEL-28 melanoma
COLO 205 colon = system: COLO 205 colon
HOP-92 NSCLC = system: HOP-92 NSCLC

Row | Compound | TGI (BT-549 breast) [µM] | TGI (NCI-H522 lung) [µM] | TGI (NCI-H226 lung) [µM] | TGI (NCI-H23 lung) [µM] | TGI (HOP-62 NSCLC) [µM] | TGI (M14 melanoma) [µM] | TGI (OVCAR-5 ovarian) [µM] | TGI (SNB-19 CNS) [µM] | TGI (SK-MEL-28 melanoma) [µM] | TGI (COLO 205 colon) [µM] | TGI (HOP-92 NSCLC) [µM]
1 | O=c1c2c(oc3ccccc13)-c1ccccc1OC2 | > 100 | > 100 | > 100 | > 100 | > 100 | > 100 | > 100 |  |  |  | 
2 | COc1ccc(Nc2nnc(-c3nsc4ccccc34)s2)cc1 |  |  | > 100 | > 100 | 36.1 | > 100 | > 100 | > 100 | > 100 | > 100 | 41.8
3 | COc1cc(O)c2c(=O)cc(-c3ccc(O)cc3O)oc2c1CC=C(C)C |  | 33.6 | 38 | 32.5 |  | 30.2 | > 100 | 44.5 | > 100 | 26.7 | 35.7
4 | CS(=O)(=O)c1nc(-c2cc3c(c(S(C)(=O)=O)n2)CCC3)cc2c1CCCCC2 | 58.2 | 58.9 | > 100 | > 100 | 84.8 | > 100 | > 100 | > 100 | > 100 | > 100 | 
5 | O=C1/C(=C\c2ccc(O)cc2)CCC/C1=C/c1ccc(Cl)c(Cl)c1 | 7.49 |  | 15.5 | 10.1 | 16.1 | 5.44 | 34.3 | 18.3 | 13.9 | 3.67 | 28.9
6 | CCOC(=O)NC(=O)c1cn(CCOC(=O)CCCCCCCCC(=O)OCCn2cc(C(=O)NC(=O)OCC)c(=O)[nH]c2=O)c(=O)[nH]c1=O |  |  | > 100 | 56.7 | > 100 | > 100 | > 100 | > 100 | > 100 |  | > 100
7 | COc1ccc2c3c1O[C@]1(C)C34CCN(C)C(C2)C42C=C[C@@]1(OC)c1c(O)ccc(O)c12 |  | > 100 |  | > 100 | > 100 |  | > 100 | > 100 | > 100 | > 100 | > 100
8 | CCOC(CN(C)C(=O)Nc1cccc2ccccc12)OCC |  | > 10 | > 10 | > 10 | > 10 | > 10 |  | > 10 | > 10 | > 10 | > 10
9 | COc1cc2c(oc(=O)c3c4oc([Si](C)(C)C)cc4cc(OC)c23)c2cccc(OCc3ccccc3)c12 |  | > 100 | > 94.4 | 35.6 | 47.6 | 61.3 | > 100 | 64.1 | > 85.9 | > 100 | > 67.2
10 | Nc1ccnc(=O)[nH]1 |  | > 100 | > 100 |  | > 100 | > 100 | > 100 |  | > 100 | > 100 | > 100
11 | C[C@]12CCC(=O)C=C1CC[C@@H]1[C@@H]2CC[C@]2(C)C(=O)NC(=O)C[C@@H]12 |  | > 100 | > 100 | > 100 | > 100 | > 100 | > 100 | > 100 | > 100 | > 100 | > 100
12 | CCOC(=O)N1CCN(C=S)CC1 |  | > 100 |  | > 100 | > 100 | > 100 | > 100 | > 100 | > 100 | > 100 | 
13 | O=C(Nc1ccc(Cl)cc1)NS(=O)(=O)c1coc2cc(F)ccc2c1=O | > 100 | > 100 | > 100 | > 100 | > 100 | > 100 | > 100 | > 100 | > 100 | > 100 | 
14 | Cn1c(=O)c(Br)c(C=O)n(CCO[N+](=O)[O-])c1=O |  |  | > 100 | 19.4 | 37.5 | 15 | 13.8 | 68.4 | 4.73 | 26.9 | 6.85
15 | CC(=O)NC1C(OCc2ccccc2)OC(CO)C(O)C1OC(C)C(=O)NC(C(=O)N[C@@H](CCC(=O)NCCNCCNc1c2ccccc2nc2cccc([N+](=O)[O-])c12)C(N)=O)C(C)C (stereo partly drawn) | > 100 |  | > 100 | > 100 | > 100 | 32.2 |  | > 100 | > 100 | 56.7 | 69.9
16 | Cc1cc(=O)n(-c2ccccc2C)c(C)n1 |  | > 100 | > 100 | > 100 | > 100 | > 100 | > 100 | > 100 | > 100 | > 100 | > 100
17 | COC(=O)C(=O)C(C(=O)C(=O)Nc1ccc(F)cc1)c1nc2ccc([N+](=O)[O-])cc2[nH]c1=O (stereo not drawn) |  | > 100 | > 100 | > 100 | > 100 | > 100 | > 100 | > 100 | > 100 | > 100 | > 100
18 | Cn1cc2ccccc2c1-c1nc(F)nc(F)n1 |  | > 100 | > 100 | > 100 | > 100 | > 100 | > 100 | > 100 | > 100 | > 100 | > 100
19 | COC(=O)c1ccc(C)cc1CC1Cc2cc(C)ccc2C1=O (stereo not drawn) | > 100 | > 100 | > 100 | > 100 | > 100 | > 100 | > 100 | > 100 | > 100 | > 100 | 
20 | CCCCOC(=O)C1C2CCC(O2)C1C(=O)OCCCC (stereo not drawn) |  | > 100 | > 100 | > 100 | > 100 | > 82.1 | > 100 | > 100 | > 100 | > 57.3 | > 100
21 | O=C(CN1CCCCC1)Nc1ccc2sc3ccccc3c(=O)c2n1 | 43.1 | 23.1 |  | 38.8 | 33.3 | 41.4 | 38.9 | 59.8 | 35.2 | 28.3 | 30
22 | CNc1ncnc2c1ncn2C1C=CC(COS(N)(=O)=O)C1 (stereo not drawn) | > 100 | > 100 |  | > 100 | > 100 | > 100 |  | > 100 | > 100 | > 100 | > 100

From PubChem BioAssay (NCI)
